Measurements taken from ChEMBL document CHEMBL1201862, “PubChem BioAssay data set” (2004).
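Method: 48-hour compound exposure of cells in 96-well plates, five concentrations, linear interpolation of endpoints. GI50 marks 50% less growth.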 The source made the active and inactive calls. Cut-off read from the data, not from the text of the source: active = GI50 up to about 1.1 µM and inactive = higher.

Experiments:
Assay in all cases: NCI-60 cell line screen, 48 h
M19-MEL = test system: M19-MEL
HOP-92 = test system: HOP-92
SNB-75 = test system: SNB-75
NCI-H522 = test system: NCI-H522
OVCAR-5 = test system: OVCAR-5
IGROV-1 = test system: IGROV-1
MDA-N = test system: MDA-N
XF498 = test system: XF498
HL-60 = test system: HL-60
HCT-15 = test system: HCT-15
UACC-62 = test system: UACC-62
SK-OV-3 = test system: SK-OV-3
HT-29 = test system: HT-29
SF-268 = test system: SF-268
SW-620 = test system: SW-620
UO-31 = test system: UO-31
K562 = test system: K562
Hs-578T = test system: Hs-578T
SNB-19 = test system: SNB-19
NCI-H23 = test system: NCI-H23
KM12 = test system: KM12
RPMI-8226 = test system: RPMI-8226
OVCAR-3 = test system: OVCAR-3
SK-MEL-5 = test system: SK-MEL-5
NCI-H226 = test system: NCI-H226
NCI/ADR-RES = test system: NCI/ADR-RES
NCI-H460 = test system: NCI-H460
ACHN = test system: ACHN
786-0 = test system: 786-0
MCF7 = test system: MCF7
EKVX = test system: EKVX
SNB-78 = test system: SNB-78
Malme-3M = test system: Malme-3M
LOX IMVI = test system: LOX IMVI
SF-295 = test system: SF-295
PC-3 = test system: PC-3
DMS-114 = test system: DMS-114
HOP-62 = test system: HOP-62
OVCAR-8 = test system: OVCAR-8
SN12C = test system: SN12C
CAKI-1 = test system: CAKI-1
RXF 393 = test system: RXF 393
KM-20L2 = test system: KM-20L2
TK-10 = test system: TK-10
T47D = test system: T47D
U-251 = test system: U-251
DMS-273 = test system: DMS-273
OVCAR-4 = test system: OVCAR-4
UACC-257 = test system: UACC-257
M14 = test system: M14
HCT-116 = test system: HCT-116
DU-145 = test system: DU-145
LXFL 529 = test system: LXFL 529
A549 = test system: A549
MDA-MB-231 = test system: MDA-MB-231
MDA-MB-435 = test system: MDA-MB-435
SK-MEL-2 = test system: SK-MEL-2
HCC 2998 = test system: HCC 2998
DLD-1 = test system: DLD-1
CCRF-CEM = test system: CCRF-CEM
SR = test system: SR
HOP-18 = test system: HOP-18
SF-539 = test system: SF-539
A498 = test system: A498
COLO 205 = test system: COLO 205
MOLT-4 = test system: MOLT-4
SK-MEL-28 = test system: SK-MEL-28

Q: For O=Cc1cc2c(s1)C(=O)c1sccc1C2=O, which GI50 (M19-MEL) is on record?
A: 23.7 nM (active)

Q: What about the GI50 (HOP-92) of the same molecule?
A: 1460 nM (inactive)

Q: And the GI50 (SNB-75)?
A: 190 nM (active)

Q: What about the GI50 (NCI-H522) of the same molecule?
A: 785 nM (active)

Q: And the GI50 (OVCAR-5)?
A: 865 nM (active)

Q: What about the GI50 (IGROV-1) of the same molecule?
A: 1490 nM (inactive)

Q: And the GI50 (MDA-N)?
A: 48.4 nM (active)

Q: And the GI50 (XF498)?
A: 1260 nM (inactive)

Q: And the GI50 (HL-60)?
A: 863 nM (active)

Q: What about the GI50 (HCT-15) of the same molecule?
A: 381 nM

Q: And the GI50 (UACC-62)?
A: 248 nM (active)

Q: And the GI50 (SK-OV-3)?
A: 2150 nM (inactive)

Q: And the GI50 (HT-29)?
A: 1880 nM (inactive)

Q: What about the GI50 (SF-268) of the same molecule?
A: 247 nM (active)

Q: What about the GI50 (SW-620) of the same molecule?
A: 257 nM (active)

Q: What about the GI50 (UO-31) of the same molecule?
A: 411 nM (active)

Q: What about the GI50 (K562) of the same molecule?
A: 541 nM (active)

Q: What about the GI50 (Hs-578T) of the same molecule?
A: 231 nM (active)

Q: What about the GI50 (SNB-19) of the same molecule?
A: 366 nM (active)

Q: And the GI50 (NCI-H23)?
A: 191 nM (active)

Q: What about the GI50 (KM12) of the same molecule?
A: 2680 nM (inactive)

Q: And the GI50 (RPMI-8226)?
A: 309 nM (active)

Q: And the GI50 (OVCAR-3)?
A: 222 nM (active)

Q: What about the GI50 (SK-MEL-5) of the same molecule?
A: 129 nM (active)

Q: What about the GI50 (NCI-H226) of the same molecule?
A: 1790 nM (inactive)

Q: And the GI50 (NCI/ADR-RES)?
A: 188 nM (active)

Q: What about the GI50 (NCI-H460) of the same molecule?
A: 1320 nM (inactive)

Q: What about the GI50 (ACHN) of the same molecule?
A: 585 nM (active)

Q: What about the GI50 (786-0) of the same molecule?
A: 1030 nM (active)

Q: What about the GI50 (MCF7) of the same molecule?
A: 564 nM (active)

Q: What about the GI50 (EKVX) of the same molecule?
A: 1610 nM (inactive)

Q: And the GI50 (SNB-78)?
A: 1410 nM (inactive)

Q: And the GI50 (Malme-3M)?
A: 368 nM (active)

Q: And the GI50 (LOX IMVI)?
A: 37.6 nM (active)

Q: What about the GI50 (SF-295) of the same molecule?
A: 169 nM (active)

Q: What about the GI50 (PC-3) of the same molecule?
A: 2080 nM (inactive)

Q: What about the GI50 (DMS-114) of the same molecule?
A: 188 nM (active)

Q: What about the GI50 (HOP-62) of the same molecule?
A: 1820 nM (inactive)

Q: And the GI50 (OVCAR-8)?
A: 338 nM (active)

Q: And the GI50 (SN12C)?
A: 350 nM (active)

Q: What about the GI50 (CAKI-1) of the same molecule?
A: 1770 nM (inactive)

Q: And the GI50 (RXF 393)?
A: 337 nM (active)

Q: What about the GI50 (KM-20L2) of the same molecule?
A: 2100 nM (inactive)

Q: What about the GI50 (TK-10) of the same molecule?
A: 1920 nM (inactive)

Q: What about the GI50 (T47D) of the same molecule?
A: 2280 nM (inactive)

Q: What about the GI50 (U-251) of the same molecule?
A: 314 nM (active)

Q: What about the GI50 (DMS-273) of the same molecule?
A: 168 nM (active)

Q: What about the GI50 (OVCAR-4) of the same molecule?
A: 220 nM (active)

Q: And the GI50 (UACC-257)?
A: 345 nM (active)

Q: What about the GI50 (M14) of the same molecule?
A: 40.3 nM (active)

Q: What about the GI50 (HCT-116) of the same molecule?
A: 256 nM (active)

Q: And the GI50 (DU-145)?
A: 180 nM (active)

Q: And the GI50 (LXFL 529)?
A: 200 nM (active)

Q: What about the GI50 (A549) of the same molecule?
A: 813 nM (active)

Q: What about the GI50 (MDA-MB-231) of the same molecule?
A: 792 nM (active)

Q: What about the GI50 (MDA-MB-435) of the same molecule?
A: 18.7 nM (active)

Q: What about the GI50 (SK-MEL-2) of the same molecule?
A: 337 nM (active)

Q: What about the GI50 (HCC 2998) of the same molecule?
A: 1560 nM (inactive)

Q: What about the GI50 (DLD-1) of the same molecule?
A: 351 nM (active)

Q: And the GI50 (CCRF-CEM)?
A: 476 nM (active)

Q: What about the GI50 (SR) of the same molecule?
A: 303 nM (active)

Q: And the GI50 (HOP-18)?
A: 183 nM (active)

Q: And the GI50 (SF-539)?
A: 215 nM (active)

Q: What about the GI50 (A498) of the same molecule?
A: 1370 nM (inactive)

Q: What about the GI50 (COLO 205) of the same molecule?
A: 2210 nM (inactive)

Q: What about the GI50 (MOLT-4) of the same molecule?
A: 1230 nM (inactive)

Q: What about the GI50 (SK-MEL-28) of the same molecule?
A: 176 nM (active)

Q: How did the GI50 (M19-MEL) turn out when C/C(=C\CC/C=C(\C)CC/C=C(\C)CCC1SC1(C)C)CC/C=C(\C)CCC1OC1(C)C (centres undefined) was run?
A: 71400 nM (inactive)

Q: And the GI50 (HOP-92)?
A: > 100000 nM (inactive)

Q: What about the GI50 (SNB-75) of the same molecule?
A: > 100000 nM (inactive)

Q: And the GI50 (NCI-H522)?
A: 47300 nM (inactive)

Q: And the GI50 (IGROV-1)?
A: > 100000 nM (inactive)

Q: And the GI50 (XF498)?
A: > 100000 nM (inactive)

Q: What about the GI50 (HL-60) of the same molecule?
A: > 100000 nM (inactive)

Q: What about the GI50 (HCT-15) of the same molecule?
A: > 100000 nM

Q: And the GI50 (SK-OV-3)?
A: > 100000 nM (inactive)

Q: And the GI50 (HT-29)?
A: > 100000 nM (inactive)

Q: What about the GI50 (SF-268) of the same molecule?
A: > 100000 nM (inactive)

Q: What about the GI50 (SW-620) of the same molecule?
A: > 100000 nM (inactive)

Q: What about the GI50 (UO-31) of the same molecule?
A: > 100000 nM (inactive)

Q: And the GI50 (K562)?
A: > 100000 nM (inactive)

Q: What about the GI50 (SNB-19) of the same molecule?
A: > 100000 nM (inactive)

Q: What about the GI50 (NCI-H23) of the same molecule?
A: > 100000 nM (inactive)

Q: And the GI50 (KM12)?
A: > 100000 nM (inactive)

Q: What about the GI50 (RPMI-8226) of the same molecule?
A: > 100000 nM (inactive)

Q: And the GI50 (OVCAR-3)?
A: > 100000 nM (inactive)

Q: And the GI50 (SK-MEL-5)?
A: > 100000 nM (inactive)

Q: And the GI50 (NCI-H226)?
A: > 100000 nM (inactive)

Q: And the GI50 (NCI-H460)?
A: > 100000 nM (inactive)

Q: What about the GI50 (ACHN) of the same molecule?
A: > 100000 nM (inactive)

Q: What about the GI50 (786-0) of the same molecule?
A: > 100000 nM (inactive)

Q: What about the GI50 (EKVX) of the same molecule?
A: > 100000 nM (inactive)

Q: What about the GI50 (Malme-3M) of the same molecule?
A: > 100000 nM (inactive)

Q: And the GI50 (SF-295)?
A: > 100000 nM (inactive)

Q: What about the GI50 (DMS-114) of the same molecule?
A: 65600 nM (inactive)

Q: What about the GI50 (OVCAR-8) of the same molecule?
A: > 100000 nM (inactive)

Q: And the GI50 (SN12C)?
A: > 100000 nM (inactive)

Q: And the GI50 (CAKI-1)?
A: > 100000 nM (inactive)

Q: And the GI50 (RXF 393)?
A: 89700 nM (inactive)

Q: And the GI50 (KM-20L2)?
A: > 100000 nM (inactive)

Q: What about the GI50 (TK-10) of the same molecule?
A: > 100000 nM (inactive)

Q: And the GI50 (U-251)?
A: > 100000 nM (inactive)

Q: And the GI50 (DMS-273)?
A: > 100000 nM (inactive)

Q: And the GI50 (OVCAR-4)?
A: > 100000 nM (inactive)

Q: What about the GI50 (M14) of the same molecule?
A: > 100000 nM (inactive)

Q: What about the GI50 (HCT-116) of the same molecule?
A: 78000 nM (inactive)

Q: And the GI50 (LXFL 529)?
A: > 100000 nM (inactive)

Q: And the GI50 (A549)?
A: > 100000 nM (inactive)

Q: What about the GI50 (SK-MEL-2) of the same molecule?
A: > 100000 nM (inactive)

Q: What about the GI50 (HCC 2998) of the same molecule?
A: > 100000 nM (inactive)

Q: What about the GI50 (DLD-1) of the same molecule?
A: > 100000 nM (inactive)

Q: And the GI50 (CCRF-CEM)?
A: > 100000 nM (inactive)

Q: What about the GI50 (SR) of the same molecule?
A: > 100000 nM (inactive)

Q: What about the GI50 (HOP-18) of the same molecule?
A: > 100000 nM (inactive)

Q: What about the GI50 (SF-539) of the same molecule?
A: > 100000 nM (inactive)

Q: And the GI50 (A498)?
A: > 100000 nM (inactive)

Q: And the GI50 (COLO 205)?
A: > 100000 nM (inactive)

Q: And the GI50 (MOLT-4)?
A: > 100000 nM (inactive)

Q: And the GI50 (SK-MEL-28)?
A: > 100000 nM (inactive)
